# Assay results as given in publication PMC9520775, “Everolimus pharmacokinetics and exposure-response relationship in Japanese patients with advanced breast cancer” (Frontiers in Pharmacology, 2022).
# Where two headings read alike, the source gives them in different places.
# Assays:
# [1] = Everolimus whole blood concentrations and Bayesian estimation of PK parameters and trough concentrations; type: in vivo, human; details: for trough concentration estimate at grade 2 stomatitis: person
# Experimental: Whole blood samples for the everolimus assay were collected at least two weeks after initiation of treatment or after the last everolimus dose change. Blood samples were collected at pre-dose, 1, 4, and 8 h after the everolimus dose. Blood everolimus concentrations were measured using a latex agglutination turbidimetric immunoassay ([Mori et al., 2014]) for the samples collected during November 2015 to September 2016 (n = 10) and using electrochemiluminescence immunoassay ([Blackburn et al., 1991]) for the samples collected during October 2016 to November 2018 (n = 8). Since these two techniques are highly correlated, the measured results were considered to be the same (r = 0.972) ([Sasano et al., 2016]).
# PK parameters such as clearance (CL) and volume of distribution were estimated using Bayesian analysis in MW/Pharm++ software (Mediware, Prague, Czech Republic) ([Fuchs et al., 2013]). […] Ka was fixed for all analyses due to the limited data to characterize the absorption. The PK parameters were allometrically scaled to body weight to account for the effect of body size differences according to the following formula: Pi=Ppop×(BWi/BWstandard)^power where Pi was the estimated PK parameter for individual i, Ppop was the typical population value of the PK parameters. BWstandard was the standard body weight of 70 kg. The power coefficient was 0.75 for CL and intercompartment clearance and 1 for volume of distribution of the central compartment and the peripheral compartment.
# Everolimus concentrations at steady-state or at the time of occurrence of dose-limiting toxicity was estimated using the Bayesian-estimated PK parameters of the individual patient.
# patients = details: cited from earlier work
# [2] = tested on: patients with advanced or metastatic breast cancer; assay: Progression-free survival (Kaplan-Meier, log-rank); type: in vivo, human; details: for PFS: single patient
# From the text: This was a prospective, observational PK study. Patients with advanced or metastatic breast cancer who received everolimus between November 2015 and November 2018 at Kobe City Medical Center General Hospital were enrolled in this study. The main inclusion criteria included the following: age ≥20 years; Eastern Cooperative Oncology Group (ECOG) performance status (PS): 0 or 1; and adequate bone marrow, liver, and renal function. The main exclusion criteria were interstitial pneumonia or pulmonary fibrosis, HBsAg positive, and psychiatric or psychological symptoms that made it difficult to participate in the study. Every participant provided written informed consent. This study was conducted in accordance with the Declaration of Helsinki and approved by the Institutional Review Board, under Approval Number zn151103.
# Statistical differences in everolimus trough concentrations, doses and body weights between patient cohorts were assessed using the Mann–Whitney test. Progression-free survival (PFS) was assessed using the Kaplan-Meier method and the log-rank test. All statistical analyses were performed using GraphPad Prism version 7.03 (San Diego, CA). p < 0.05 was considered statistically significant.
# breast cancer patients = tested on: breast cancer patients; design: method as in Ito et al., 2015; details: Japanese population in the BOLERO-2 study; ref Ito et al., 2015; cited from earlier work
# [3] = five patients who did not experience DLTs
compound,measurement,setting,value
CO[C@H]1C[C@@H]2CC[C@@H](C)[C@@](O)(O2)C(=O)C(=O)N2CCCC[C@H]2C(=O)O[C@H]([C@H](C)C[C@@H]2CC[C@@H](OCCO)[C@H](OC)C2)CC(=O)[C@H](C)/C=C(\C)[C@@H](O)[C@@H](OC)C(=O)[C@H](C)C[C@H](C)/C=C/C=C/C=C/1C [everolimus],"steady-state trough concentrations at the starting dose, range","[1]; 5 mg starting dose, six patients, approximated with Bayesian-estimated PK parameters",11.3 to 29.6 ng/mL
same,"estimated steady-state trough concentration when the dose was reduced and maintained without DLT, range",[1]; 13 patients who had DLTs,5.7 to 24.2 ng/mL
same,median estimated steady-state trough concentration when the dose was reduced and maintained without DLT,[1]; 13 patients who had DLTs,8.3 ng/mL
same,"estimated trough concentration at the time of the DLTs, range",[1]; 13 patients with DLTs,11.3 to 64.6 ng/mL
same,median estimated trough concentration at the time of the DLTs,[1]; 13 patients with DLTs,19.0 ng/mL
same,"CL, Mean","[1]; Bayesian estimate, steady state, Japanese breast cancer patients n = 18, scaled to 70 kg",11.7 L/h/70 kg
same,estimated trough concentration after dose reduction,[1]; all patients except in one patient,higher than 6 ng/ml
same,steady-state trough concentration after restarting the treatment,"[1]; case Figure 3A, 5 mg once daily, no DLTs",8.4 ng/mL
same,trough concentration estimate at grade 2 stomatitis,"[1]; case Figure 3A, 10 mg once daily, two weeks after initiation",16.8 ng/mL
same,steady-state trough concentration after everolimus dose reduction,"[1]; case Figure 3B, 5 mg every alternate day",9.2 ng/mL
same,trough concentration estimate at grade 2 stomatitis,"[1]; case Figure 3B, 5 mg once daily, day 90",29.6 ng/mL
same,"trough concentration, median",[1]; [3],19.0 ng/mL
same,"trough concentration, range",[1]; [3],12.8 to 33.2 ng/mL
same,"clearance (CL), range","[1]; inter-individual range, n = 18",5.1–21.3 L/h/70 kg
same,"volume of distribution of the central compartment, range","[1]; inter-individual range, n = 18",9.9–103.6 L/70 kg
same,"dose-adjusted trough concentrations, range","[1]; whole blood, steady state, doses 10, 5, 2.5 mg/day or 5 mg every alternate day",1.3 to 6.5 ng/mL/mg/day
same,incidence of stomatitis,"patients; Japanese breast cancer patients, ref BOLERO-2 study",88%
same,proportion of patients who required a second dose reduction to 2.5 mg daily,"patients; clinical study in Spain (6/90), ref Pascual et al., 2017",7%
same,proportion of patients who required a dose reduction to 5 mg daily,"patients; clinical study in Spain (43/90), ref Pascual et al., 2017",48%
same,incidence of stomatitis,"patients; patients with breast cancer, ref Alexopoulos et al., 2022, Ruíz-Falcó Rojas et al., Tedesco-Silva et al.",20%–50%
same,incidence of stomatitis,"patients; renal transplant or tuberous sclerosis complex, ref Alexopoulos et al., 2022, Ruíz-Falcó Rojas et al., Tedesco-Silva et al.",approximately 10%
same,PFS,[2]; case Figure 3A,8.5 months
same,PFS,[2]; case Figure 3B,13.8 months
same,trough concentration to which adjusting may significantly prolong PFS,[2]; discussion statement,10 to 20 ng/mL
same,trough concentration group with significantly longer PFS,"[2]; groups <10 (n = 9), 10–20 (n = 6), >20 ng/ml (n = 3), log-rank p = 0.0078",10 to 20 ng/mL
same,number of patients with PFS more than 8.5 months,[2]; of 18 patients,14
same,"PFS, range","[2]; study population, n = 18",1.7–55.8 months
same,median PFS,"[2]; study population, n = 18, with exemestane",13.7 months
same,median PFS,breast cancer patients,8.5 months
